In patent publication US20220145406A1, “BIOMARKERS, AND USES IN TREATMENT OF VIRAL INFECTIONS, INFLAMMATIONS, OR CANCER” (ABIVAX, priority 2018, published 2022):

System: miR-429
Assay: RNA CaptureSeq read counts at the control locus miR-429
Type: cell-based, human
Conditions: PBMCs; control locus outside the miR-124 region
Method: Total RNA was extracted from infected and uninfected PBMC samples using TRIzol reagent (Invitrogen) following the manufacturer's protocol. The RNA concentrations and purity were determined using the RNA 6000 Bioanalyzer kit (Agilent). For cDNA synthesis, 1 μg of total RNA was treated with DNase I (Invitrogen) and then utilized as a template for reverse transcription using the Verso cDNA kit with a blend of random hexamers and anchored oligo-dT (Thermo Scientific), according to the manufacturer's instructions. After KAPA Hyper Prep (ROCHE) library preparation from 1 μg total RNA, we proceeded with SeqCap EZ capture (ROCHE) following the manufacturer's recommendations. […] Sequencing was performed on a NextSeq 500 (Illumina) with 18 samples on a HighOutput Cartridge (2×400 million reads of 75 bases each).
miR-124 is encoded from three independent genes, miR-124-1, miR-124-2, and miR-124-3, located on human chromosomes 8 and 20 (FIG. 4A). […] The total number of reads for untreated as well as ABX464 treated samples varied between 2 and 30 million in infected and uninfected PBMCs (Table V). The number of reads from the three loci encoding miR-124 in the treated samples were 4- to 12-fold higher than in the untreated samples (FIG. 4B, Table V), confirming that ABX464 led to a large increase in miR-124. […]

## FC(F)(F)Oc1ccc(Nc2ccc3cccc(Cl)c3n2)cc1 [ABX464, 8-chloro-N-(4-(trifluoromethoxy)phenyl)quinolin-2-amine]
  expression of miR-429: no effect
